# According to patent publication US20230277630A1, “METHODS AND COMPOSITIONS FOR TREATING AMYOTROPHIC LATERAL SCLEROSIS” (Amylyx Pharmaceuticals, Inc., priority 2022, published 2023):
# Like-named read-outs stand apart in the source and are kept apart here.
# Assays:
# [1] = target: T1, human liver microsomes (HLM) (Homo sapiens, UniProt P05177); test: CYP reaction phenotyping using HLM and chemical inhibitors (% remaining); type: in vitro ADME; conditions: human, microsomes, 5 μM, pH 7.4
# T1 construct: from tissue; host or cells: pooled human liver microsomes
# T1 sequence (P05177 1-516): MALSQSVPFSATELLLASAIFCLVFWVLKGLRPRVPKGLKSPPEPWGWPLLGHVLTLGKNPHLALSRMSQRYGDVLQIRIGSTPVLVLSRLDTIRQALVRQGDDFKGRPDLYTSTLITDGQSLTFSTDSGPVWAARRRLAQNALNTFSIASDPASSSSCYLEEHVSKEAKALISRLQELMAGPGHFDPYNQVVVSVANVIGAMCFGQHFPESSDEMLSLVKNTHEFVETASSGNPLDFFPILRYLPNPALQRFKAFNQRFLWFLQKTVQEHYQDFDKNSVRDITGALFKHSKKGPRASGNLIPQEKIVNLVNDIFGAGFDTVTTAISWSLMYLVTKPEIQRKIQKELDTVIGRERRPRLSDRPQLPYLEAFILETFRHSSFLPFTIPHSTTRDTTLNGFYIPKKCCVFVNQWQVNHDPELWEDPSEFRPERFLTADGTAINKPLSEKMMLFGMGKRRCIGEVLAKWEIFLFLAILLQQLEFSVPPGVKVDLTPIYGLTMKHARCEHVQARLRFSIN
# From the text: (§1) % Remaining of TA=100×At/A0
# (§2) Where, At and A0 are the peak area ratio of TA to IS at time t and at time zero, respectively.
# [2] = target: T2, human liver microsomes (HLM) (Homo sapiens, UniProt P10635); test: as above; type: in vitro ADME; conditions: human, microsomes, 5 μM, pH 7.4
# T2 construct: from tissue; host or cells: pooled human liver microsomes
# T2 sequence (P10635 whole entry): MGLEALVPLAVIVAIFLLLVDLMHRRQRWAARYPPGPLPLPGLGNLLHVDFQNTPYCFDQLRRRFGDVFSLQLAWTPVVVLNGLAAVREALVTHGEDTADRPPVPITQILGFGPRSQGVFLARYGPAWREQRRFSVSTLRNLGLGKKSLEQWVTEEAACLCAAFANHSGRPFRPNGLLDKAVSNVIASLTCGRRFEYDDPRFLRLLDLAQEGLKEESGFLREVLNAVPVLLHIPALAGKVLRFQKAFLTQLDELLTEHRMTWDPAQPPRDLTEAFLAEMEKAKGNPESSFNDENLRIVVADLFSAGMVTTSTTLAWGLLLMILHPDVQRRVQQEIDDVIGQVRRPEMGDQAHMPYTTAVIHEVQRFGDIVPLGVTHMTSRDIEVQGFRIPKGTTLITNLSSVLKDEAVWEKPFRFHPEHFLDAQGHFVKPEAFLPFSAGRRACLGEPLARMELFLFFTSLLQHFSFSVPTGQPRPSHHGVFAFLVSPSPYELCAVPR
# From the text: as §1, §2
# [3] = target: T3, human liver microsomes (HLM) (Homo sapiens, UniProt P11712); test: as above; type: in vitro ADME; conditions: human, microsomes, 5 μM, pH 7.4
# T3 construct: from tissue; host or cells: pooled human liver microsomes
# T3 sequence (P11712 whole entry): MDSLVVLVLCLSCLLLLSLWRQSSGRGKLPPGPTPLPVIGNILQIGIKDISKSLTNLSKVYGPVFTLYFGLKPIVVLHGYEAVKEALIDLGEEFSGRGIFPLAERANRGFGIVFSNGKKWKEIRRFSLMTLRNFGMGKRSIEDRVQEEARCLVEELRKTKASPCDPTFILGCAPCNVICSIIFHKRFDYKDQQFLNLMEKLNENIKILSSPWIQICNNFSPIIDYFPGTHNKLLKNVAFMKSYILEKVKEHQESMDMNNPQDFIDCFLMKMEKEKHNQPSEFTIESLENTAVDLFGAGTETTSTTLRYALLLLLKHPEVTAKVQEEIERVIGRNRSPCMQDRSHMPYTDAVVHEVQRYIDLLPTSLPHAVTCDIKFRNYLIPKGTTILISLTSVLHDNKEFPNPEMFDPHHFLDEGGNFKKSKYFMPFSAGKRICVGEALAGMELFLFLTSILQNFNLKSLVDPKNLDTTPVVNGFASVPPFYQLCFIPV
# From the text: as §1, §2
# [4] = target: T4, human liver microsomes (HLM) (Homo sapiens, UniProt P33261); test: as above; type: in vitro ADME
# T4 construct: from tissue; host or cells: pooled human liver microsomes
# T4 sequence (P33261 whole entry): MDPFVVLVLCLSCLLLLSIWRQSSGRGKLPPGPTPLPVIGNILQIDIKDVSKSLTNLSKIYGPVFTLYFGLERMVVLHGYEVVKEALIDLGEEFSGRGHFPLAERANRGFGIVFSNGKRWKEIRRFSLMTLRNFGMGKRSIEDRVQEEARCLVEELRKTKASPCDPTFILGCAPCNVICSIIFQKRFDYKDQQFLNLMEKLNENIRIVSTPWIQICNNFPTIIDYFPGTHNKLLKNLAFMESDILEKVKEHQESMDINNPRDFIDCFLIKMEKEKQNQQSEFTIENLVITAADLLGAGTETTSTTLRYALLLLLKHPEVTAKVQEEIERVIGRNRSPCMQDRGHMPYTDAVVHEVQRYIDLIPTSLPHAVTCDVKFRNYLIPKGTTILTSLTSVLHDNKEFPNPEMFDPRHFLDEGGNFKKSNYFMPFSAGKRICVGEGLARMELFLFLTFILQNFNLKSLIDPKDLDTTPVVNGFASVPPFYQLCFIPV
# From the text: as §1, §2
# [5] = test system: human liver microsomes (HLM); test: as above; type: in vitro ADME; conditions: human, microsomes, 0 h, 5 μM, pH 7.4
# From the text: as §1, §2
# [6] = target: T5, hrCYP1A2 (Homo sapiens, UniProt P05177); conditions: recombinant enzyme, 5 μM, pH 7.4
# T5 sequence (P05177 1-516): T1 sequence (P05177 1-516)
# Description: (§3) The reaction was initiated by the addition of NADPH, followed by incubation at 37° C.
# as §1
# (§4) Where, At is the peak area ratio of TA to internal standard (IS) at time t, A0 is the average peak area ratio of TA to IS at time zero.
# [7] = target: T6, hrCYP2C8 (Homo sapiens, UniProt P10632); conditions: recombinant enzyme, 5 μM, pH 7.4
# T6 sequence (P10632 1-490): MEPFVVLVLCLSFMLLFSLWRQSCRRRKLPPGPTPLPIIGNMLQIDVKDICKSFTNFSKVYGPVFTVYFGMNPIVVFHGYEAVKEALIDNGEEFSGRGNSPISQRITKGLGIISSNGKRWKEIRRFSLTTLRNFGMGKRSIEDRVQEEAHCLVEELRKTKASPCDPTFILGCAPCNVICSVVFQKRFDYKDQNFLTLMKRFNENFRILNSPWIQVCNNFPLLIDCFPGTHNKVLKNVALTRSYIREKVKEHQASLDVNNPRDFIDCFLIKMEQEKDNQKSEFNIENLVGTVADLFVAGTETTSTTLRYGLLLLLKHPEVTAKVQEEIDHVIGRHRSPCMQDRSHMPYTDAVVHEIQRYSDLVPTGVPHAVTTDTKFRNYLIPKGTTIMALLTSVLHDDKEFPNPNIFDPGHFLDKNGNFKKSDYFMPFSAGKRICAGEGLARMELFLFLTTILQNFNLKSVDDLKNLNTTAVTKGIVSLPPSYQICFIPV
# Description: as §3, §1, §4
# [8] = target: hrCYP2C9 (Homo sapiens, UniProt P11712); conditions: recombinant enzyme, 5 μM, pH 7.4
# Chain of hrCYP2C9 (P11712 whole entry): as the sequence (P11712 whole entry) above
# Description: as §3, §1, §4
# [9] = target: hrCYP2D6 (Homo sapiens, UniProt P10635); conditions: recombinant enzyme, 5 μM, pH 7.4
# Chain of hrCYP2D6 (P10635 whole entry): as the sequence (P10635 whole entry) above
# Description: as §3, §1, §4
# [10] = target: hrCYP3A4 (Homo sapiens, UniProt P08684); conditions: recombinant enzyme, 5 μM, pH 7.4
# Chain of hrCYP3A4 (P08684 whole entry): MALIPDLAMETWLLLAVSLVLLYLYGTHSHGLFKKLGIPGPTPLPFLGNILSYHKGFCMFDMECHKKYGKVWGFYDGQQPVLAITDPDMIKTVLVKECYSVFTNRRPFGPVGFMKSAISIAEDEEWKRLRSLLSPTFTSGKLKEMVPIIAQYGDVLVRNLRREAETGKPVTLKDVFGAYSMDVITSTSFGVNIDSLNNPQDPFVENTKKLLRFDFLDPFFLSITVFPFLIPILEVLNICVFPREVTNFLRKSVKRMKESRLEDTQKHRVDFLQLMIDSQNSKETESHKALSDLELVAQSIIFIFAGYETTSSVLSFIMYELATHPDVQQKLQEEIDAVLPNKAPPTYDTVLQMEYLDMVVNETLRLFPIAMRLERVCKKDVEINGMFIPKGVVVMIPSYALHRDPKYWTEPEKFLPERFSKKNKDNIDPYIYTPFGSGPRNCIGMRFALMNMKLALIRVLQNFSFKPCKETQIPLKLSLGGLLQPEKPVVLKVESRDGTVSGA
# Description: as §3, §1, §4
# [11] = Relevant concentrations of TUDCA and PB for in vitro transporter assessment ([I]1, [I]2, Iin,max)
# [12] = Solubility assessment in HBSSg_7.4 and HBSSg_8.5; conditions: 37 °C, thermodynamic from solid
# Description: All solubility samples were prepared in silanized glass tubes. […] After incubation, the mixture was centrifuged at 20800 g for 15 minutes. The supernatant was diluted appropriately, and the concentrations of each component were determined by LC-MS/MS.
structure (smiles),measurement,setting,value
"C[C@H](CCC(=O)NCCS(=O)(=O)O)[C@H]1CC[C@H]2[C@@H]3[C@@H](O)C[C@@H]4C[C@H](O)CC[C@]4(C)[C@H]3CC[C@]12C [TUDCA, tauroursodeoxycholic acid]",% Remaining of TA (n = 3) Average,[1]; 0 h,100%
same,% Remaining of TA (n = 3) Average,[1]; 5 min,123%
same,% Remaining of TA (n = 3) Average,[1]; 10 min,123%
same,% Remaining of TA (n = 3) Average,[1]; 20 min,121%
same,% Remaining of TA (n = 3) Average,[1]; 0.5 h,120%
same,% Remaining of TA (n = 3) Average,[1]; 1 h,128%
same,% Remaining of TA (n = 3) Average,[2]; 0 h,100%
same,% Remaining of TA (n = 3) Average,[2]; 5 min,101%
same,% Remaining of TA (n = 3) Average,[2]; 10 min,110%
same,% Remaining of TA (n = 3) Average,[2]; 20 min,99.7%
same,% Remaining of TA (n = 3) Average,[2]; 0.5 h,101%
same,% Remaining of TA (n = 3) Average,[2]; 1 h,87.2%
same,% Remaining of TA (n = 3) Average,[3]; 0 h,100%
same,% Remaining of TA (n = 3) Average,[3]; 5 min,102%
same,% Remaining of TA (n = 3) Average,[3]; 10 min,96.9%
same,% Remaining of TA (n = 3) Average,[3]; 20 min,92.8%
same,% Remaining of TA (n = 3) Average,[3]; 0.5 h,95.0%
same,% Remaining of TA (n = 3) Average,[3]; 1 h,95.3%
same,% Remaining of TA (n = 3) Average,"[4]; human, microsomes, 0 h, 5 μM, pH 7.4",100%
same,% Remaining of TA (n = 3) Average,"[4]; human, microsomes, 5 min, 5 μM, pH 7.4",106%
same,% Remaining of TA (n = 3) Average,"[4]; human, microsomes, 10 min, 5 μM, pH 7.4",93.0%
same,% Remaining of TA (n = 3) Average,"[4]; human, microsomes, 20 min, 5 μM, pH 7.4",93.1%
same,% Remaining of TA (n = 3) Average,"[4]; human, microsomes, 1 h, 5 μM, pH 7.4",94.5%
same,% Remaining of TA (n = 3) Average,"[4]; reversible incubation condition, CYP2C19 (+NADPH, +N3B), 30 min",92.1%
same,% Remaining of TA (n = 3) Average,[5],100%
same,% Remaining of TA,[6]; 0 h,100%
same,% Remaining of TA,[6]; 5 min,98.0%
same,% Remaining of TA,[6]; 10 min,101%
same,% Remaining of TA,[6]; 20 min,99.9%
same,% Remaining of TA,[6]; 0.5 h,103%
same,% Remaining of TA,[6]; 1 h,90.5%
same,% remained after 60 minutes of incubation,[6]; 1 h,greater than 90%
same,% Remaining of TA,[7]; 0 h,100%
same,% Remaining of TA,[7]; 10 min,99.3%
same,% Remaining of TA,[7]; 20 min,101%
same,% Remaining of TA,[7]; 0.5 h,101%
same,% Remaining of TA,[7]; 1 h,99.8%
same,% remained after 60 minutes of incubation,[7]; 1 h,greater than 90%
same,% Remaining of TA,[8]; 0 h,100%
same,% Remaining of TA,[8]; 5 min,96.0%
same,% Remaining of TA,[8]; 10 min,98.8%
same,% Remaining of TA,[8]; 20 min,98.5%
same,% Remaining of TA,[8]; 0.5 h,97.8%
same,% Remaining of TA,[8]; 1 h,90.3%
same,% remained after 60 minutes of incubation,[8]; 1 h,greater than 90%
same,% Remaining of TA,[9]; 0 h,100%
same,% Remaining of TA,[9]; 5 min,98.4%
same,% Remaining of TA,[9]; 10 min,97.8%
same,% Remaining of TA,[9]; 20 min,97.0%
same,% Remaining of TA,[9]; 0.5 h,99.2%
same,% Remaining of TA,[9]; 1 h,98.6%
same,% remained after 60 minutes of incubation,[9]; 1 h,greater than 90%
same,% Remaining of TA,[10]; 0 h,100%
same,% Remaining of TA,[10]; 5 min,97.1%
same,% Remaining of TA,[10]; 10 min,92.1%
same,% Remaining of TA,[10]; 20 min,91.4%
same,% Remaining of TA,[10]; 0.5 h,90.9%
same,% Remaining of TA,[10]; 1 h,91.1%
same,% remained after 60 minutes of incubation,[10]; 1 h,greater than 90%
same,estimated [I]2,[11]; Table 28,8005 µM
same,projected unbound Cmax,[11]; Table 28,1620 nM
same,unbound [I]1,[11]; Table 28,1.62 µM
same,Plasma Cmax (total [I]1),[11]; component of AMX0035,108000 nM
same,[I]2,"[11]; estimated, highest oral dose TUDCA 1000 mg, PB 3000 mg",8005 µM
same,"projected unbound Iin,max","[11]; oral administration, Table 28",3.48 µM
same,Unbound Cmax (Unbound [I]1),[11]; projected,1620 nM
same,"Unbound [I]in, max",[11]; projected,3.48 µM
same,solubility,"[12]; HBSSg 7.4 buffer, pH 7.4, aqueous buffer",≥ 8.01 mM
same,solubility,"[12]; HBSSg 8.5 buffer, pH 8.5, aqueous buffer",≥ 0.81 mM
